“Also recorded” adds a separate entry of the source.
Tests used:
CHO-wt cells = assay: Binding of C^14-labeled integrin inhibitor to CHO-wt cells; settings: 20 mM EDTA, 10 μM compound, listed as C^u-labeled integrin inhibitor
Method: (§1) The binding of C^14-labeled integrin inhibitory compound, hydrochloride salt of [4-(dimethylamino)phenyl]{[3-(4-fluorophenyl)phenyl]-sulfonyl}methylamine, was studied with CHO-wt cells and α2 integrin over expressing CHO cell clone (CHO-α2). CHO-wt cells have no collagen receptor integrins on their cell surface. Cells were fixed in 2% formaldehyde in PBS. After that cells were washed and suspended in reaction buffer (50 mM Tris-HCl pH 7.4, 5 mM MgCl2). To all samples 10 μM C^14-labeled inhibitory compound was added and the cells were incubated in the presence or absence of 20 mM EDTA for 1 h in +4° C. 20000 cells from each sample were loaded to GF/B glass microfibre filter (Whatman) and the samples were washed with 10 mL of the reaction buffer. The membranes were put to scintillation buffer (Optiphase HiSafe3, Perkin Elmer) and the activity was measured with the scintillation counter (Wallac 1415).

[1] = molecular target: T1, α2 integrin over expressing CHO cell clone (CHO-α2) (Homo sapiens, UniProt P17301); assay: Binding of C^14-labeled integrin inhibitor to CHO-α2 cells; settings: for binding of labeled compound in the presence of EDTA: CHO-α2 cells, 20 mM EDTA, 10 μM compound
T1 construct: expressed in transfected cells; host or cells: CHO cell clone over-expressing α2 integrin (CHO-α2)
T1 sequence (P17301 30-1181): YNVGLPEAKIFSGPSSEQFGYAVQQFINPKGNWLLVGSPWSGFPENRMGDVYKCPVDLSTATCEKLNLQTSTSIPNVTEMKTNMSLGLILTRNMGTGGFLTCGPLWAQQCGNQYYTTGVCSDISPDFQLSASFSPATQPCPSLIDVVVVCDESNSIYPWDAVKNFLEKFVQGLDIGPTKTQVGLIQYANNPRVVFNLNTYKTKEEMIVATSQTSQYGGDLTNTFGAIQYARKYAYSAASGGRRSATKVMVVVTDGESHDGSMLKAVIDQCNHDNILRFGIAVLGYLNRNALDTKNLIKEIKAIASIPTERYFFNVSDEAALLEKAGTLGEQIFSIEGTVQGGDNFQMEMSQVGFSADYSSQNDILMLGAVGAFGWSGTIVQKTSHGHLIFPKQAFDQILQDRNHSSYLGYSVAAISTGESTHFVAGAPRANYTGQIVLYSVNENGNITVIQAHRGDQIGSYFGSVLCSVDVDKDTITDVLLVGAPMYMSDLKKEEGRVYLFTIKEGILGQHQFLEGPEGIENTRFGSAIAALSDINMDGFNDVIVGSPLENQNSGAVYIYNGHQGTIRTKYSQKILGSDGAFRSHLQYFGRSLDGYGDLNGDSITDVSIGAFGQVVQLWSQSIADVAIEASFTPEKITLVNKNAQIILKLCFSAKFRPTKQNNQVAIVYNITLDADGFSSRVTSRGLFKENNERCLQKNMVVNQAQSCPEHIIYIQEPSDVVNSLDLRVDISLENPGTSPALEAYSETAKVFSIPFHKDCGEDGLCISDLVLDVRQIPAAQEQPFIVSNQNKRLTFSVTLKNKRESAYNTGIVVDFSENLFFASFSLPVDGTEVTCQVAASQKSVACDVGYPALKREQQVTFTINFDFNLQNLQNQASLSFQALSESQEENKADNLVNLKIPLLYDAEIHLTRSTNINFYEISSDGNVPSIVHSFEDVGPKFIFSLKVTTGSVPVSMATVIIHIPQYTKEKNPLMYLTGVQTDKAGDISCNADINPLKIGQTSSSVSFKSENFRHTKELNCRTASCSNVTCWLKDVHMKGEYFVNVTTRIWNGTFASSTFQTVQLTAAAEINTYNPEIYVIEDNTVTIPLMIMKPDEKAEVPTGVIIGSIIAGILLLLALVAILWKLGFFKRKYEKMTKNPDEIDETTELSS
T1 sequence (P05556 21-798 partner): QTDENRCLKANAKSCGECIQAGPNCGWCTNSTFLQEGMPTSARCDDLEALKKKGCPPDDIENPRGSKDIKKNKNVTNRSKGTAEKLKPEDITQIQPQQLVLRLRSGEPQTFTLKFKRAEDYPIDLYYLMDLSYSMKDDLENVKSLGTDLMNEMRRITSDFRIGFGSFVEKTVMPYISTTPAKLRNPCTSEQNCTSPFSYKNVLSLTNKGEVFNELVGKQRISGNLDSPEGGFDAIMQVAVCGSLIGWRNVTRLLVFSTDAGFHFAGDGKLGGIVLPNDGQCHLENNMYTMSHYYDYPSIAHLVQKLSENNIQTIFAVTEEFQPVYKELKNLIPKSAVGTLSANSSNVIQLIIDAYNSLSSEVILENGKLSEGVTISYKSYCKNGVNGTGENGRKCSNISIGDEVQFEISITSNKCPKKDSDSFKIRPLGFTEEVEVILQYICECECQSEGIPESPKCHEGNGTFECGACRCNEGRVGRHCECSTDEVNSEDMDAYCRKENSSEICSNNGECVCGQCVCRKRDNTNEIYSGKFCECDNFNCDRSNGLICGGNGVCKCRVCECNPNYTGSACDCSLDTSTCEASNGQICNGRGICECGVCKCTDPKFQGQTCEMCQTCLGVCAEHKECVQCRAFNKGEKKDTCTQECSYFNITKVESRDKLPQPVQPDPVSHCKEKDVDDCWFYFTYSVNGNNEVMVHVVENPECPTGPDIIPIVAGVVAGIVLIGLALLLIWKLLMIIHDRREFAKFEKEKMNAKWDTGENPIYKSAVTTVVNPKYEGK
Method: as §1

α2β1 integrin receptors = molecular target: T2, α2β1 integrin receptors (Homo sapiens, UniProt P05556+P17301); assay: PFA-100 platelet function analysis, whole blood closure time; type: cell-based; settings: Collagen/ADP cartridges, vs untreated control
T2 construct: endogenous in cells; host or cells: platelets in anticoagulated whole blood of healthy donors
T2 sequence (P17301 30-1181): as the sequence (P17301 30-1181) above
T2 sequence (P05556 21-798): as the sequence (P05556 21-798 partner) above
Method: The responsiveness of the genotyped healthy volunteers to a treatment involving the blockade of α2β1 integrin receptors was assessed by measuring the effect of synthetic α2β1 integrin inhibitors, such as sulphonamide derivatives disclosed e.g. in WO 2005/090298, on whole blood closure time in PFA-100 platelet function analysis. The PFA-100 analyzer is a high shear-inducing device that simulates primary haemostasis after injury of a small vessel. The system comprises a test-cartridge containing a biologically active membrane coated with collagen plus adenosine diphosphate (ADP). An anticoaculated whole blood sample is run through a capillary under a constant vacuum. […] Synthetic α2β1 integrin inhibitor was added to the whole blood sample obtained from each healthy volunteer, and the closure time was measured with PFA-100. […]
The effect of a synthetic α2β1 integrin inhibitor, sodium salt of 4-({[3-(4-fluorophenyl)phenyl]sulfonyl}amino)phenyl phenyl ketone (BTT-3016), on whole blood closure time in PFA-100 analysis was determined for donors representing each genotypic population. […] Samples were incubated at room temperature for 10 min., dispensed into PFA Collagen/ADP cartridges, and closure time was determined with PFA-100 (Dade Behring).

Compound | binding of labeled compound in the presence of EDTA (CHO-wt cells) | binding of labeled compound to cells ([1]; 10 μM C^14-labeled compound, 1 h, +4° C, CHO-α2 compared with CHO-wt) | binding of labeled compound in the presence of EDTA [1] | binding of labeled compound in the presence of EDTA ([1]; listed as C^u-labeled integrin inhibitor) | effect on whole blood closure time (α2β1 integrin receptors; donors with high α2β1 expression (MEF≧35), genotype TT807 or CT807) | effect on whole blood closure time (α2β1 integrin receptors; donors with low integrin expression, genotype CC807)
CN(C)c1ccc(NCS(=O)(=O)c2cccc(-c3ccc(F)cc3)c2)cc1 [[4-(dimethylamino)phenyl]{[3-(4-fluorophenyl)phenyl]-sulfonyl}methylamine] | not to CHO-wild type (wt) cells | bound more efficiently to CHO-α2 cells than to CHO-wt cells | could be inhibited | EDTA inhibits the binding |  | 
O=C(c1ccccc1)c1ccc(NS(=O)(=O)c2cccc(-c3ccc(F)cc3)c2)cc1 [BTT-3016, 4-({[3-(4-fluorophenyl)phenyl]sulfonyl}amino)phenyl phenyl ketone] |  |  |  |  | increases the blood closure time; also recorded: increase the closure time statistically significantly | non-responsive; also recorded: not efficacious
